Assay results taken from patent publication US20230109717A1 (GAIA BioMedicine Inc., priority 2020, published 2023).

Tested on: highly active NK cells
Test: Viable cell count and recovery rate of highly active NK cells after thawing, based on cell number at freezing
Parameters: species or system human
Method: After the thawing, all the dilution and incubation operations were performed on a low-absorption 6-well plate.
The cells of the groups diluted in the media were incubated overnight at 37° C. under 5% CO2, and then the numbers of viable cells were counted. The experimental conditions are summarized below.
The NK cells obtained by the collection method 1 were suspended in PBS, and incubated at room temperature for 1 hour. The NK cells obtained by the collection method 2 were suspended in (1) the KBM501 medium, (2) KBM501 medium containing 30 μM 4-phenylbutyric acid, (3) KBM501 medium containing 30 μM tauroursodeoxycholic acid dihydrate (TUDCA, Tokyo Kasei Kogyo, T1567), and (4) KBM501 medium containing 30 μM 4-phenylbutyric acid and 30 μM TUDCA, and incubated at 37° C. for 2 hours under 5% CO2. […] After 1 hour, the cells were gently suspended, and number of viable cells was counted. After another 5-fold dilution in the KBM501 medium and incubation at 37° C. for 2 hours under 5% CO2, number of viable cells was counted, and the recovery rate based on the number of cells at the time of freezing was calculated.
(§1) After 1 and 3 hours, the cells were gently suspended, and viable cells were counted. In addition, after 1 hour, the cells were diluted 5-fold in the KBM501 medium, and incubated at 37° C. for 2 hours under 5% CO2, and viable cell were counted. Recovery rate of viable cells after the thawing based on the cell number at the time of freezing was calculated using the number of viable cells at each time point.
as §1, with “on the basis of” for “using”, “point after the thawing.” for “point.”

C[C@H](CCC(=O)NCCS(=O)(=O)O)[C@H]1CC[C@H]2[C@@H]3[C@@H](O)C[C@@H]4C[C@H](O)CC[C@]4(C)[C@H]3CC[C@]12C [TUDCA, tauroursodeoxycholic acid dihydrate]
Recovery rate (added before freezing at 800 μM (preferable between 2,400 μM and 267 μM)): higher recovery rate | Recovery rate after the thawing (pretreatment 2 hours with KBM501 medium supplemented with 30 μM additive before freezing, Example 5): improved | Recovery rate after thawing (pretreatment with KBM501 medium supplemented at various concentrations (266 to 2400 μM), Example 7): improved | Recovery rate after the thawing (pretreatment with KBM501 medium supplemented with various concentrations (10 to 810 μM), Example 6): improved
